Results taken from patent US20250090437A1, “COSMETIC COMPOUNDING AGENT, COSMETIC AND PRODUCTION METHOD THEREOF” (MIYOSHI OIL & FAT CO., LTD., priority 2019, published 2025).

Assays:
[1] = Water retention property test 1; format: physicochemical; settings: 80 wt % aqueous solution
Procedure: A moisture rate after 24 hours was again measured (post-test moisture rate: B), followed by using the formula below to calculate a rate of reduction in moisture so as to evaluate the water retention property. • Pre-test moisture rate: A (%) • Post-test moisture rate: B (%)

[2] = Water retention property test 2 (hydrates); format: physicochemical; settings: hydrate (anhydrides: aqueous solution at mono- to trihydrate concentration); for Pre-test moisture rate: before the test; for Post-test moisture rate / Rate of reduction in moisture: unsealed, 24 hours at 40° C. and 25% RH
Procedure: (2) Water retention property test 2 The water retention property of the hydrate of each compound was evaluated. Hydrates were used in the cases of the compounds C1 to C38, C40 to C49 and C56 to C59; however, since the compounds C39 and C62 to C64 were anhydrides, there were used aqueous solutions prepared by adding water so that a concentration would be that of monohydrate to trihydrate. The moisture rate of the sample(s) was confirmed using a Karl Fischer moisture meter (pre-test moisture rate: A). Next, 1.0 g of each of these samples was added to a screw tube, and this screw tube, while remaining unsealed, was then left to stand still for 24 hours in a thermo-hygrostat set to 40° C. and 25% RH. A moisture rate after 24 hours was again measured (post-test moisture rate: B), followed by calculating a rate of reduction in moisture in a similar manner as above so as to evaluate the water retention property. Here, a comparative evaluation was performed on each hydrate of the compounds C1 to C38, C40 to C49 and C56 to C59 together with an aqueous solution(s) of the compound C39 having a concentration(s) corresponding to the numbers of these hydration waters.
(monohydrates in compounds C1 to C38, C40 to C49 and C56 to C59 of working examples C62 to C99, C103 to C116 with compound C39 of working example C100, compound C62 of comparative example C4, compound C63 of comparative example C7 and compound C64 of comparative example C10)
(dihydrates in compounds C1 to C38, C40 to C49 and C56 to C59 of working examples C62 to C99, C103 to C116 with compound C39 of working example C101, compound C62 of comparative example C5, compound C63 of comparative example C8 and compound C64 of comparative example C11)
(trihydrates in compounds C1 to C38, C40 to C49 and C56 to C59 of working examples C62 to C99, C103 to C116 with compound C39 of working example C102, compound C62 of comparative example C6, compound C63 of comparative example C9 and compound C64 of comparative example C12)

[3] = unsealed, 24 hours at 40° C. and 25% RH

SMILES | Pre-test moisture rate [2] [%] | Post-test moisture rate [2] [%] | Rate of reduction in moisture [2] [%] | further results
CC(C)(C)CO [Compound C44] | – | – | – | Water retention property test 1 Pre-test moisture rate [1]: 20.0%; Water retention property test 1 Post-test moisture rate ([1]; 24 hours at 40° C. and 25% RH): 19.2%; Water retention property test 1 Rate of reduction in moisture ([1]; 24 hours at 40° C. and 25% RH): 4.7%
CC(CO)CO [Compound C45] | – | – | – | Water retention property test 1 Pre-test moisture rate [1]: 20.0%; Water retention property test 1 Post-test moisture rate ([1]; 24 hours at 40° C. and 25% RH): 19.5%; Water retention property test 1 Rate of reduction in moisture ([1]; 24 hours at 40° C. and 25% RH): 2.5%
CCC(C)(CO)CO [Compound C48] | – | – | – | Water retention property test 1 Pre-test moisture rate [1]: 20.0%; Water retention property test 1 Post-test moisture rate ([1]; 24 hours at 40° C. and 25% RH): 19.4%; Water retention property test 1 Rate of reduction in moisture ([1]; 24 hours at 40° C. and 25% RH): 2.9%
CCC(O)C(O)C(O)C(O)CO (stereo not drawn) [Compound C56] | – | – | – | Pre-test moisture rate ([1]; before the test (Karl Fischer)): 20.0%; Post-test moisture rate [1, 3]: 19.7%; Rate of reduction in moisture [1, 3]: 1.7%
CC[N+](C)(C)CCO.CS(=O)(=O)[O-] [Working example C97] | 7.8 | 7.7 | 1.9 | –
C[N+](C)(CCO)CC(O)CO.[Cl-] (stereo not drawn) [Working example C98] | 15.3 | 14.0 | 8.7 | –
C[N+](C)(CCO)CC(O)C[N+](C)(C)CCO.[Cl-].[Cl-] [Working example C99] | 10.5 | 9.4 | 10.2 | –
CC(O)C(=O)[O-].CCCC[N+](CCCC)(CCCC)CCCC [Working example C100] | 5.2 | 4.9 | 6.4 | –
CC(O)C(=O)[O-].CCCC[N+](CCCC)(CCCC)CCCC [Working example C102] | 14.0 | 12.3 | 12.0 | –
NCCO.O=C1O[C@H]([C@@H](O)CO)C(O)=C1O [Working example C103] | 13.2 | 13.0 | 1.5 | –
CCC(N)(CO)CO.O=C1O[C@H]([C@@H](O)CO)C(O)=C1O [Working example C107] | 10.9 | 10.6 | 2.8 | –
NC(CO)(CO)CO.O=C1OC(C(O)CO)C(O)=C1O (stereo not drawn) [Working example C108] | 10.8 | 10.5 | 2.8 | –
NCC(O)C(O)C(O)C(O)CO.O=C1OC(C(O)CO)C(O)=C1O (stereo not drawn) [Working example C109] | 9.2 | 9.1 | 1.1 | –
C[N+](C)(C)CCO.O=C1OC(C(O)CO)C([O-])=C1O (stereo not drawn) [Working example C110] | 11.4 | 11.2 | 1.8 | –
C[N+](C)(C)CC(O)CC(=O)O.O=C1O[C@H]([C@@H](O)CO)C([O-])=C1O [Working example C111] | 9.7 | 9.6 | 1.0 | –
CC(=O)OCC[N+](C)(C)C.O=C1O[C@H]([C@@H](O)CO)C([O-])=C1O [Working example C112] | 10.1 | 9.9 | 2.0 | –
CC(C)(N)CO.CC(O)C(=O)O [Working example C113] | 16.7 | 16.3 | 2.5 | –
CC(N)(CO)CO.CC(O)C(=O)O [Working example C114] | 15.6 | 15.2 | 2.8 | –
CC(C)(N)CO.O=C1OC(C(O)CO)C(O)=C1O (stereo not drawn) [Working example C115] | 12.0 | 11.7 | 2.9 | –
CC(N)(CO)CO.O=C1O[C@H]([C@@H](O)CO)C(O)=C1O [Working example C116] | 11.4 | 11.1 | 2.9 | –
